One test addresses T1, LYCHOS (GPR155) (Homo sapiens, UniProt Q7Z3F1).
T1 sequence (Q7Z3F1 1-870): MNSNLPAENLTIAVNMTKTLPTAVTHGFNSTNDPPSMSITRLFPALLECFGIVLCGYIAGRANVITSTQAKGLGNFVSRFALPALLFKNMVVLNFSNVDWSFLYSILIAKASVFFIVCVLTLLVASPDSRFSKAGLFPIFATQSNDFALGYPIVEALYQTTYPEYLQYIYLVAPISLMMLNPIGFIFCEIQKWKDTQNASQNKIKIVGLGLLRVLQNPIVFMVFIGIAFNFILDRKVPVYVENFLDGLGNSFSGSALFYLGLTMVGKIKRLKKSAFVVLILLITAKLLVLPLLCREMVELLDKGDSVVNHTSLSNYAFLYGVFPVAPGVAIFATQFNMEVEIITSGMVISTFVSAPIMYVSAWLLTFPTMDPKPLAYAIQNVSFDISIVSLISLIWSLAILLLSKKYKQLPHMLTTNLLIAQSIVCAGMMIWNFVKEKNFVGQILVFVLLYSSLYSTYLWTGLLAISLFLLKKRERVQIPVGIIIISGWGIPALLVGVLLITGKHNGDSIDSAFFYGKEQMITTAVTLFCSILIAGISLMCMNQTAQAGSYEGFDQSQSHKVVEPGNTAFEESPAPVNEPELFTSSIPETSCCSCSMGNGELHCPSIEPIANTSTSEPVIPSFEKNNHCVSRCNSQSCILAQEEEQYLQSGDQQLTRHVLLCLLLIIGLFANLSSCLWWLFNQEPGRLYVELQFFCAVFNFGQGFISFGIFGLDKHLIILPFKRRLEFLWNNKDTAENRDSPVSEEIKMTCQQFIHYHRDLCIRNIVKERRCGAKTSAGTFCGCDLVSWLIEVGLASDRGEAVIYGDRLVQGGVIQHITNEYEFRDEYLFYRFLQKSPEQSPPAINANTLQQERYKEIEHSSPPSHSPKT
Nature of the test: [3H]-cholesterol saturation binding, scintillation counting.

The next test has as its target LYCHOS-GATOR1 complex (Homo sapiens, UniProt Q7Z3F1). Nature of the test: FLAG co-immunoprecipitation of GATOR1 with LYCHOS from cholesterol-refed cells. Format: cell-based.

1 molecule from PMC10023259 (Science (New York, N.Y.), 2022) can be followed below.

SMILES strings stand for the structures.

LYCHOS-GATOR1 complex, sequence (O75140 whole entry partner, one chain of several): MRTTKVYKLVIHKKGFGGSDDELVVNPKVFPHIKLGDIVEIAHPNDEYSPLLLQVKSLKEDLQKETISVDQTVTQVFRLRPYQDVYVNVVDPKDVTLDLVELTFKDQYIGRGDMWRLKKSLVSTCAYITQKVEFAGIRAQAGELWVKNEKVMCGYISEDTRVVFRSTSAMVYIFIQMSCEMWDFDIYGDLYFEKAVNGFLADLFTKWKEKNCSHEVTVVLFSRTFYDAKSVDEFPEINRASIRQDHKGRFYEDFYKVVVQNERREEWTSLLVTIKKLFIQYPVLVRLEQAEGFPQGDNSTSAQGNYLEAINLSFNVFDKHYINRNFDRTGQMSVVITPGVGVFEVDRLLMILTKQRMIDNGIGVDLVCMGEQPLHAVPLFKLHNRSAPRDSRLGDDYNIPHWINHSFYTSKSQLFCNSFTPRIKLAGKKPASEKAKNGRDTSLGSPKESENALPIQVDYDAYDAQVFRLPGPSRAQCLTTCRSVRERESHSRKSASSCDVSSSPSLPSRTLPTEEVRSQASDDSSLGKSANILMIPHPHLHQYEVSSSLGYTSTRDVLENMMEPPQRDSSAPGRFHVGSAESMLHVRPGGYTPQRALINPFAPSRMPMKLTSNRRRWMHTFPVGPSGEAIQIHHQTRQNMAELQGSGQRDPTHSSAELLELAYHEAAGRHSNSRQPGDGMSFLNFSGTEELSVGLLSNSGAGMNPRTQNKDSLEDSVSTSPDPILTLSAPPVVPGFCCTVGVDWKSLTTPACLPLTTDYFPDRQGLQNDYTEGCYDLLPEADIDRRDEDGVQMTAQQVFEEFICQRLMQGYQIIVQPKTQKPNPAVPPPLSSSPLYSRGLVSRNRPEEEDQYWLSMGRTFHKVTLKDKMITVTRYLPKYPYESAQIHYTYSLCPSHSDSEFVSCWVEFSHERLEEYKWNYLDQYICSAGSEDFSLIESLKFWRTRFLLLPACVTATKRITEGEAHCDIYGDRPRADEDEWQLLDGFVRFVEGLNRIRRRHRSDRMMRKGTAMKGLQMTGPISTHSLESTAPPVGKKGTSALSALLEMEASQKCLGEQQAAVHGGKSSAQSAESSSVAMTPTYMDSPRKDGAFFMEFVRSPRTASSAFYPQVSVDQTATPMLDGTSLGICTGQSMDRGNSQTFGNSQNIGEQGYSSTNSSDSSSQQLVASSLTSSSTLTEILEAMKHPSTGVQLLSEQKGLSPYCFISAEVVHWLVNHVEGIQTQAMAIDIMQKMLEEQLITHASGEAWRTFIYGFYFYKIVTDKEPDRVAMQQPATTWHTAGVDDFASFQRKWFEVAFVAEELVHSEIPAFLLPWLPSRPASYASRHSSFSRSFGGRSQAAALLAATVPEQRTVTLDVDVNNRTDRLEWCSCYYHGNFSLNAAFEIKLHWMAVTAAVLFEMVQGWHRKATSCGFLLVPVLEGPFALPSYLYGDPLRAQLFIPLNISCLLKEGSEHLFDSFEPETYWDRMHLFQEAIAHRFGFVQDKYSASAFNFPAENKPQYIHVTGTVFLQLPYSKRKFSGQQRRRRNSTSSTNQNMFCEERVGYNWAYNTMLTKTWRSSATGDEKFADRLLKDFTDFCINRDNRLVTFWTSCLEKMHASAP
LYCHOS-GATOR1 complex, sequence (Q8WTW4 whole entry partner, one chain of several): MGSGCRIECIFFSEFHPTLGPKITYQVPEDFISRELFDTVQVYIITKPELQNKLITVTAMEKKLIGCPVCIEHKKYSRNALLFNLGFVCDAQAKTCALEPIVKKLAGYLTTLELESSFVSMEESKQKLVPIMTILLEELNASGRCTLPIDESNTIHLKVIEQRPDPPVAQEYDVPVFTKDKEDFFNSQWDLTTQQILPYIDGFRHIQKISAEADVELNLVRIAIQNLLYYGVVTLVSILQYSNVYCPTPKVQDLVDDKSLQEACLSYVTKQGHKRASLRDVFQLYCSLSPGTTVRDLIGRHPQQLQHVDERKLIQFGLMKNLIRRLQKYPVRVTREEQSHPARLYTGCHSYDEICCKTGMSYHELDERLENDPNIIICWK
LYCHOS-GATOR1 complex, sequence (Q12980 whole entry partner, one chain of several): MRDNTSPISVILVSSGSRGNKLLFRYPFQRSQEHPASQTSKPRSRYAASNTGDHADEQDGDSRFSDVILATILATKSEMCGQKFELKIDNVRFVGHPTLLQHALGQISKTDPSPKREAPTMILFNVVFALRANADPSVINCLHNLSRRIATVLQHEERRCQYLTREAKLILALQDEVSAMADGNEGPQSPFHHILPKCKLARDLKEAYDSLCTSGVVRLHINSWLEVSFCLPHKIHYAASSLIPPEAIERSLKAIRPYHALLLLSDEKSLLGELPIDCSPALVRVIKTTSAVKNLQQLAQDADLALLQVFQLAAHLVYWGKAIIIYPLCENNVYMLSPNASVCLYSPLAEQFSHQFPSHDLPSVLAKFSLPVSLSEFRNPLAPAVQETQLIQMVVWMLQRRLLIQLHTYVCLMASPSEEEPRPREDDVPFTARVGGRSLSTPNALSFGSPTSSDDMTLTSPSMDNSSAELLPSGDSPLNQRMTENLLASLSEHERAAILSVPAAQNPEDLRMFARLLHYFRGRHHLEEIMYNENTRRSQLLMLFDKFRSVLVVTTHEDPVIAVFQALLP

With `CC(C)CCC[C@@H](C)[C@H]1CC[C@H]2[C@@H]3CC=C4C[C@@H](O)CC[C@]4(C)[C@H]3CC[C@]12C` [cholesterol], the dissociation constant (Kd) at LYCHOS (GPR155) lay in the range of 0.1 to 0.2 µM. The molecule also came in with an EC50 at LYCHOS-GATOR1 complex of 31.5 µM.
